# Test results: ChEMBL document CHEMBL2073920 (Eur J Pharmacol, 1998)
# How the values were obtained:
# [1] = molecular target: T1, ATP-dependent translocase ABCB1 (Homo sapiens, UniProt P08183); experiment: TP_TRANSPORTER: inhibition of Rhodamine 123 transepithelial transport (basal to apical)(R123: 5 uM, Midazolam: 100 uM) in Caco-2 cells; assay type: functional, cell-based; conditions: caco-2, 100 µM
# [2] = molecular target: T1, ATP-dependent translocase ABCB1; experiment: TP_TRANSPORTER: transepithelial transport (basal to apical) in Caco-2 cells; assay type: functional, cell-based
# T1 sequence (P08183 whole entry): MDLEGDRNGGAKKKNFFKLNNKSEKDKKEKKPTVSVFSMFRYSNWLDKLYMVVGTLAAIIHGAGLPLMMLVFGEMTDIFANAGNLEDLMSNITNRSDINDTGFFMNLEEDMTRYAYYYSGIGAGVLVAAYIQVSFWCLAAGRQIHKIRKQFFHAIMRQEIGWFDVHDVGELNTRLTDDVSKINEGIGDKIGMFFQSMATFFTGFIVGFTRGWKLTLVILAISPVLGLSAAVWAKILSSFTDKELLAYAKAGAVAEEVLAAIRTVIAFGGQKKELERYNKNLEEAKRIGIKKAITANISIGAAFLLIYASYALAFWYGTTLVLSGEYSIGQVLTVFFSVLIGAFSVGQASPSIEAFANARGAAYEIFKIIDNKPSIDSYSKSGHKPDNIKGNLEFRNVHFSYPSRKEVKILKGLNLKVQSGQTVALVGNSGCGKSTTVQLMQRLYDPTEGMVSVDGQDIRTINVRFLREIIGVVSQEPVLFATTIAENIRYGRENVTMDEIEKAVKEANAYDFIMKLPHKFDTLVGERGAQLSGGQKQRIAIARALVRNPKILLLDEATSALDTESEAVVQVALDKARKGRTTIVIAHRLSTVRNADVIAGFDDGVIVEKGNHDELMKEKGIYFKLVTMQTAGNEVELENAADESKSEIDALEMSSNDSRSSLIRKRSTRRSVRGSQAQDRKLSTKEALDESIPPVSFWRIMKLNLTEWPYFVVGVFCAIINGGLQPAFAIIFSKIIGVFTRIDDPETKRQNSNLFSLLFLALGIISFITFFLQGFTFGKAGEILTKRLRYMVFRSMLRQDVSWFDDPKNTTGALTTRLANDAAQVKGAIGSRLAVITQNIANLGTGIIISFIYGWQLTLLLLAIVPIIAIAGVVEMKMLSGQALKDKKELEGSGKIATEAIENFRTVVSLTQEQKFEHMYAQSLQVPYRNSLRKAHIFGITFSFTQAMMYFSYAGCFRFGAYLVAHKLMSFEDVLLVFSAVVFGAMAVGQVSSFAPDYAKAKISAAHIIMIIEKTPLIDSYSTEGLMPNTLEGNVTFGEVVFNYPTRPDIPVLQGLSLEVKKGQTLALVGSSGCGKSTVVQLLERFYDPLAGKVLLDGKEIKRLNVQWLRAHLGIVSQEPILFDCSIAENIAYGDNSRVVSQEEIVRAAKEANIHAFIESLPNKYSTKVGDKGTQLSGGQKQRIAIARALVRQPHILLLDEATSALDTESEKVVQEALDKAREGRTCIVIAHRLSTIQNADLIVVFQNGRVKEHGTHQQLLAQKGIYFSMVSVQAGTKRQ
smiles,measurement,setting,value
Cc1ncc2n1-c1ccc(Cl)cc1C(c1ccccc1F)=NC2 [MIDAZOLAM],Activity,[1],inhibitor [(at a rough estimate) 55 % of control]
same,Activity,[2],substrate [+]
